Values of other authors as cited in patent US7872044B2, “Inhibitors of chymase” (Janssen Pharmaceutica NV, priority 2006, dated 2011).

System: angiotensin II activity in human vascular extracts
Conditions: background statement

NCCCC[C@H](N[C@@H](CCc1ccccc1)C(=O)O)C(=O)N1CCC[C@H]1C(=O)O [lisinopril]
angiotensin II activity inhibited: about 8%
